# Laboratory results: ChEMBL document CHEMBL1155501, “Studies on two types of PTP1B inhibitors for the treatment of type 2 diabetes: Hologram QSAR for OBA and BBB analogues” (Bioorg Med Chem Lett, 2010)
# pIC50, pKi: −log10 of the molar value.
# Molecular target: T1, Tyrosine-protein phosphatase non-receptor type 1 (Homo sapiens, UniProt P18031)
# T1 sequence (P18031 whole entry): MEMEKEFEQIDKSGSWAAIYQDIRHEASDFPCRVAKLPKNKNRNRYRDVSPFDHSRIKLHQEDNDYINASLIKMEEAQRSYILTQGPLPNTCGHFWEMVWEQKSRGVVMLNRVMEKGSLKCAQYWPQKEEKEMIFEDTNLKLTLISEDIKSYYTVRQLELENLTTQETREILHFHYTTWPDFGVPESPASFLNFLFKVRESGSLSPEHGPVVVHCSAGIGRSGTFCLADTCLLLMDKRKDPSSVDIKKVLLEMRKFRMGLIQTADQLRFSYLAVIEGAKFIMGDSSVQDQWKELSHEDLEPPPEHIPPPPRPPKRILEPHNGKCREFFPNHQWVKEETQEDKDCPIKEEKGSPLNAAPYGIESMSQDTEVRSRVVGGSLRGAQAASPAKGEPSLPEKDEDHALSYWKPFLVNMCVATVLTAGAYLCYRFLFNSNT
# Assay: Binding affinity to human recombinant PTP1B
Structure (SMILES),pKi,pIC50
CCCCc1sc2ccccc2c1-c1ccc(-c2ccc(OCC(=O)O)cc2)cc1,,5.66
CCCCc1sc2ccccc2c1-c1ccc(-c2ccc(O)cc2)cc1,,6.16
O=C(O)[C@H](Oc1ccc(-c2ccc(-c3c(Cc4ccc(O)cc4O)sc4ccccc34)cc2)cc1)c1ccccc1,,6.92
Oc1c(Br)cc(-c2ccc(-c3c(Cc4ccccc4)sc4ccccc34)cc2)cc1Br,,6.35

# Further lines, results first:
pKi,pIC50,Structure (SMILES)
5.22,,Nc1cccc(-c2cc(NC(=O)C(=O)O)c(C(=O)O)s2)c1
2.90,,Cc1cccc(C(=O)O)c1NC(=O)C(=O)O
5.22,,O=C(O)C(=O)Nc1sc2c(c1C(=O)O)CCS(=O)(=O)C2
,6.34,O=C(O)/C=C/C(=O)Nc1cc(-c2ccc(-c3c(Cc4ccccc4)oc4ccccc34)cc2)ccc1O
